Measured values as given in patent publication US20250195491A1 (AEVIS BIO, INC., priority 2022, published 2025).

What was measured:
[1] = Stability in human plasma (UPLC-MS quantification); assay type: in vitro ADME; settings: FIG. 7B
Method: To plot a standard calibration curve, the stock sample was diluted by half with acetonitrile from 125 to 0.39 μg/mL to prepare standard solutions for a total of 10 samples at different concentrations, and the calibration curve was plotted as shown in FIG. 7A.
For the experiment of verifying stability in plasma, 10 μL of the test drug prepared at a concentration of 100 μg/mL was added to 90 μL of human plasma and mixed for 30 seconds, and then immediately after the addition, the plasma-mixed test drug was incubated for 15, 30, 60, or 120 minutes to prepare samples. Afterward, 400 μL of 100% ethyl acetate was added to each sample and extracted using a vortex mixture for 1 minute. […] Initially, the mobile phase B was increased from 5% to 95% until 9 minutes and analyzed, the mobile phase B was maintained 95% until 12 minutes, and then the mobile phase B was lowered to 5% and equilibrated, and used in the subsequent analysis. the flow rate of the mobile phase was 0.3 mL/min, the sample injection volume was 2 μL, and the mass spectrometer was operated in the ESI-positive mode. The spray voltage was set to 3.5 kV, and the flow rates of the nitrogen sheath gas, auxiliary gas, and sweep gas were analyzed as 50, 10, and 1 (arbitrary units), respectively. […]

Aiolos and Ikaros = Aiolos and Ikaros degradation by immunoblotting in MM.1S cells; assay type: cell-based, human; settings: immunoblot
Method: To this end, the MM.1S cell line was cultured in an RPMI medium (Corning, MD, USA) supplemented with 10% fetal bovine serum (Corning, MD, USA), 100 U/mL of penicillin (Corning, MD, USA), and 100 μg/mL of streptomycin (Corning, MD, USA) at 37° C. in a 5% CO2 incubator. […] The cells were disrupted by adding a RIPA buffer containing a protease inhibitor cocktail (Thermo Fisher Scientific) and centrifuged at 14,000 rpm for 15 minutes at 4° C. to obtain a cell extract. Equal amounts of the cell extract were loaded, and proteins were separated through SDS-PAGE and then transferred to a PVDF membrane. The protein-transferred membrane was blocked using skim milk, incubated with a primary antibody for 3 hours at room temperature, and then incubated with an HRP-conjugated secondary antibody for 1 hour at room temperature. The resulting product was washed with TBS-T three times between steps. Detection was performed using a chemoluminescence reagent (Thermo Fisher Scientific), and confirmed using Chemidoc (iBright CL1500, Invitrogen, CA, USA). Aiolos (#15103), Ikaros (#9034) and GAPDH (#2118S) antibodies used as primary antibodies and a secondary antibody were purchased from Cell Signaling Technology (Danvers, MA, USA).
Additionally, the expression of Aiolos and Ikaros, mediated by 3-MP, was confirmed over time. […]

iNOS and COX-2 = iNOS and COX-2 mRNA (RT-PCR) in LPS-stimulated BV-2 cells; assay type: cell-based, mouse; settings: BV-2, 30, 10, or 3.33 μM, LPS 1 μg/mL 6 hours, FIG. 6D
Method: Finally, to determine the mRNA expression levels of iNOS and COX-2, BV-2 was seeded in a 6-well plate (Corning, MD, USA) at 5×10^5 cells/well, and cultured using a DMEM medium (Corning, MD, USA) containing 10% fetal bovine serum (Corning, MD, USA) and 100 U/mL of penicillin/streptomycin (Corning, MD, USA) at 37° C. in a 5% CO2 incubator for one day for stabilization. […] 1 μg/mL of LPS (Sigma, USA) was added to all experimental groups excluding the non-inflammation-induced group and allowed to react at 37° C. in a 5% CO2 incubator for 6 hours.
The drug-treated BV-2 underwent RNA prep according to the kit manual using an RNA prep kit (Monarch Total RNA Miniprep kit, NEB, UK), and the concentration was measured using a nanophotometer (NP80, Implen, Germany). […]
The expression level of each oxidative stress-associated gene in the synthesized cDNA was analyzed and compared using Real-Time PCR (StepOne™Bioscience, USA) equipment. […] The Cr value for the gene of each sample obtained through real-time PCR was normalized by the value of the internal control gene (GAPDH) of each sample, the expression level was estimated inversely by 2ΔΔCT calculation, and the resulting value of each group was quantified and expressed as a percentage relative to the LPS-only treatment group.

SMILES: Nc1cccc2c1C(=S)N(C1CCC(=O)NC1=O)C2=O (centres unmarked) [3-MP, 3-thiopomalidomide]
- stability in human plasma over time ([1]; 0 to 120 minutes): maintained without significant changes in plasma from 0 to 120 minutes
- plasma level immediately after plasma addition ([1]; 0 minutes): 80 µg/mL
- expression of Aiolos and Ikaros over time (Aiolos and Ikaros; 10 μM, 1, 4, 8, 12, or 24 hours, FIG. 3B): does not reduce the expression of Aiolos and Ikaros
- expression of Aiolos and Ikaros, by concentration (Aiolos and Ikaros; 0.000128-10 μM, 4 hours, FIG. 3A): does not reduce the expression of Aiolos and Ikaros
- mRNA expression of oxidative stress-associated genes (iNOS and COX-2) (iNOS and COX-2): can effectively inhibit the mRNA expression of an oxidative stress-associated gene
